{"source": "patent US20250136617A1", "about": "(The Regents of the University of Colorado, A Body Corporate, priority 2022, published 2025)", "key": {"CXCR4": {"biological_target": "CXCR4 (Homo sapiens, UniProt P61073)", "sequence (P61073 whole entry)": "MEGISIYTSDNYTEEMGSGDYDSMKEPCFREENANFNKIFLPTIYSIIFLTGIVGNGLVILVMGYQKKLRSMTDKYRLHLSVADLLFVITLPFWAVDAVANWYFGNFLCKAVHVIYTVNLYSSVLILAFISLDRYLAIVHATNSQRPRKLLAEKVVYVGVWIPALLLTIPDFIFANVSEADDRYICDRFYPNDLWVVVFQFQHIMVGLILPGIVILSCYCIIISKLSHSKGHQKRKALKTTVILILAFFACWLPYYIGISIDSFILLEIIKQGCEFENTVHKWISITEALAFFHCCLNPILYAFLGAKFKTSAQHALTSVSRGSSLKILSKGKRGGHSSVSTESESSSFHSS", "test": "Tag-Lite CXCR4 binding assay (displacement of fluorescent SDF-1α)", "procedure": "Binding activity was measured using the Cisbio Tag-Lite Chemokine CXCR4 system (CisBio, Bedford, MA). […] Following three-hour incubation, HTRF measurements were taken using the BMG LABTECH CLARIOstar Plus (BMG LABTECH Inc., Cary, NC) with emission signals set to the Cisbio Tag-Lite Binding Assay supplier guidelines. HTRF ratio calculations completed according to supplier guidelines."}, "[1]": {"test_system": "diabetic wounds in Db mice", "test": "Diabetic wound healing, full-thickness excisional 8 mm wounds in Db mice", "type": "in vivo", "settings": "for reduction of wound closure time vs PBS: 10 μM; for wound surface area vs PBS: post-injury day 6", "procedure": "The ability of compound UCUF-728 to improve diabetic wound healing in vivo was examined. Full-thickness excisional 8 mm wounds were created in Db mice and were immediately treated with 10 μM UCUF-728 or phosphate-buffered saline (PBS) control. Wound healing over the course of 22 days was monitored. Initial wound size was calculated immediately after wounding, and wound closure was assessed over time as the percentage of initial wound area. […] The effect of UCUF-728 treatment on angiogenesis was assessed using immunohistochemistry for endothelial marker CD31. Representative photos of immunoperoxidase staining for CD31 at 7 days in diabetic wounds treated with PBS or UCUF-728 are shown in FIG. 8A.\nThe ability of UCUF-965, a thiadiazine compound, to improve diabetic wound healing in vivo was examined. Full-thickness excisional 8 mm wounds were created in Db mice and were immediately treated with 10 μM UCUF-965 or PBS control. Wound healing over the course of 22 days was monitored. Initial wound size was calculated immediately after wounding, and wound closure was assessed over time as the percentage of initial wound area. FIG. 13 indicated the wound healing effect of UCUF-965 topical administration on excision wound model on different days after injury. […] UCUF-965-treated diabetic wounds closed around 14 days after treatment whereas control PBS-treated wounds healed at day 22. UCUF-965 is a promising positive allosteric modulator of CXCR4 signaling to treat diabetic would healing.\nAll animal experiments were approved by the Institutional Animal Care and Use Committee at the University of Colorado Denver—Anschutz Medical Campus, and experimental protocols followed the guidelines described in the NIH Guide for the Care and Use of Laboratory Animals. In these experiments, 10 week old, female, genetically diabetic C57BKS.Cg-m/Leprdb/J (Db) mice and heterozygous, non-diabetic (non-Db), age-matched female controls from the Jackson Laboratory (Bar Harbor, ME) were used. Mice were anesthetized with inhaled isoflurane. Each mouse was shaved and depilated before wounding. The dorsal skin was swabbed with alcohol and Betadine (Purdue Pharma, Stamford, CT). Each mouse received a single, full-thickness dorsal wound (including panniculus carnosum) with an 8-mm punch biopsy (Miltex Inc, York, PA). After wounding, a Hamilton syringe was used to deliver 50 μL of either 10 uM test compound or PBS, as a control. 10 μL were injected intradermally at 12, 3, 6 and 9 o'clock and at the wound base. […] Mice pictures were taken every other day, wound size was analyzed by Image J. A full-thickness skin sample, centered on the wound, was harvested 3 and 7 days after surgery (n=5 per timepoint)."}}, "note": "Entries after “also recorded” stand apart in the source; their conditions may differ.", "data": [{"smiles": "COc1ccc(OC)c(NS(=O)(=O)c2ccc(-c3cnc(C4CC4)o3)cc2)c1", "note": "[Oxazole Entry 19, 4-(2-Cyclopropyloxazol-5-yl)-N-(2,5-dimethoxyphenyl)benzenesulfonamide]", "values": [{"measurement": "displacement of SDF-1α binding", "setting": "CXCR4; listed as UCUF-728", "value": "did not displace SDF-1α binding; also recorded: did not displace SDF-1a saturation binding"}, {"measurement": "reduction of wound closure time vs PBS", "setting": "[1]", "value": 36, "unit": "%"}, {"measurement": "wound surface area vs PBS", "setting": "[1]", "value": "decrease in wound surface area"}]}, {"smiles": "CCOc1ccccc1-c1nnc2n1N=C(c1ccc(N3CCCC3)cc1)CS2", "note": "[Thiadiazine Entry 23, 3-(2-ethoxyphenyl)-6-(4-(pyrrolidin-1-yl)phenyl)-7H-[1,2,4]triazolo[3,4-b][1,3,4]thiadiazine]", "values": [{"measurement": "displacement of SDF-1α binding", "setting": "CXCR4; listed as UCUF-965", "value": "did not displace fluorescently labelled SDF-1α binding; also recorded: did not displace SDF-1α saturation binding; also recorded: did not competitively displace"}, {"measurement": "reduction of wound closure time vs PBS", "setting": "[1]", "value": 36, "unit": "%"}, {"measurement": "wound surface area vs PBS", "setting": "[1]", "value": "decrease in wound surface area"}]}]}
